Results on 49 compounds are retold here after US9133439B2, “Differentiation of human embryonic stem cells” (Janssen Biotech, Inc., priority 2009, dated 2015).

Each structure is given as a SMILES string. Several values for one entry are separate records, joined by “and”; a condition that tells them apart may be missing. Equal values may be shown once. Read-outs that look alike come from different tables or passages of the source.

Experiment [1] relates to H1 human embryonic stem cells (differentiated). Nature of the experiment: Example 3: confirmation screen, total cell number (nuclei) by high content analysis. It counts as cell-based. Conditions: relative to control treatment. The source says: All wells were fed and treated identically.
For experiment [2] the test system is unchanged. It counts as cell-based.
[3] abbreviates: 2.5 uM, steps 3 and 4, triplicate.
[4] abbreviates: ratio for well treated with individual compound relative to average of wells with DMSO alone.

On to `CC(C)c1cnc(NC(=O)Cc2ccccc2)s1` [BML-259], for which the “Total Nuclei Ratio” value in experiment [1] (setting [3]) is recorded as 0.99. For the same compound, the “Total Nuclei” value in experiment [2] (setting [4]) is given as 1.04. For `O=C1Cc2c([nH]c3ccc(Br)cc23)-c2ccccc2N1` [Kenpaullone], in that order: 1.02 and 0.99. Take `COc1ccc(S(=O)(=O)N(CCO)c2ccccc2CN(C)CC=Cc2ccc(Cl)cc2)cc1` [KN-93]: the “Total Nuclei Ratio” value in experiment [1] (1 uM, steps 3 and 4) is 1.05 and 1.04. In addition, the “Total Nuclei” value in experiment [2] (setting [4]) came out at 1.04. Consider `C#Cc1cccc(Nc2ncnc3cc(OC)c(OC)cc23)c1` [BML-265], for which the “Total Nuclei Ratio” value in experiment [1] (setting [3]) amounted to 0.97. For the same compound, the “Total Nuclei” value in experiment [2] (setting [4]) worked out at 1.06.

With `NC(N)=NCCNS(=O)(=O)c1cccc2cnccc12` [HA-1004], the “Total Nuclei Ratio” value in experiment [1] (setting [3]) stood at 1.08. In experiment [2] (setting [4]), the “Total Nuclei” value stood at 1.08. In the case of `COc1cccc(-c2cc(=O)c3ccccc3o2)c1N` [PD-98059], in experiment [1] (setting [3]), the “Total Nuclei Ratio” value stood at 0.96. Also, in experiment [2] (setting [4]), the “Total Nuclei” value amounted to 0.92. For `CC1CNCCN1S(=O)(=O)c1cccc2cnccc12` (stereo not drawn) [H-7], the “Total Nuclei Ratio” value in experiment [1] (setting [3]) was 1.09. The “Total Nuclei” value in experiment [2] (setting [4]) was found to be 1.02. Take `CN([C@@H](Cc1ccc(OS(=O)(=O)c2cccc3cnccc23)cc1)C(=O)N1CCN(c2ccccc2)CC1)S(=O)(=O)c1cccc2cnccc12` [KN-62]: in experiment [1] (1 uM, steps 3 and 4), the “Total Nuclei Ratio” value was 1.02 and 1.03. Further, the “Total Nuclei” value in experiment [2] (setting [4]) stood at 0.96. Regarding `Cc1cc(O)c2c(=O)c3c(O)cc(O)c4c5c(O)cc(O)c6c(=O)c7c(O)cc(C)c8c1c2c(c34)c(c78)c65` [Hypericin], the “Total Nuclei” value in experiment [2] (setting [4]) was 1.07. Still for that read-out and setting: next, `CC(C)(C)n1nc(-c2ccc(Cl)cc2)c2c(N)ncnc21` [PP2]: 1.01. In the case of `C=CC(=O)c1ccc2ccccc2c1` [ZM 449829], in experiment [2] (setting [4]), the “Total Nuclei” value came out at 1.01. On to `Oc1cc(O)cc(/C=C/c2ccc(O)c(O)c2)c1` [Piceatannol], for which, in experiment [2] (setting [4]), the “Total Nuclei” value turned out to be 1.07. For the compound `N#CC(C#N)=Cc1cc(O)c(O)c(O)c1` [Tyrphostin 25], the “Total Nuclei” value in experiment [2] (setting [4]) was 1.02. For `COc1cc2ncnc(Nc3cccc(Cl)c3)c2cc1OC` [Tyrphostin AG 1478], the “Total Nuclei” value in experiment [2] (setting [4]) is on record as 1.10.

For `O=c1c(-c2ccc(O)cc2)coc2cc(O)cc(O)c12` [Genistein], the “Total Nuclei” value in experiment [2] (setting [4]) is 1.03.

Turning to `Cl.Cl.O=S(=O)(NCCNC/C=C/c1ccc(Br)cc1)c1cccc2cnccc12` [H-89], in experiment [1] (setting [3]), the “Total Nuclei Ratio” value was 1.08. Further, the “Total Nuclei” value in experiment [2] (setting [4]) turned out to be 1.09.

Regarding `COc1cc(/C=C(\C#N)C(N)=O)cc(CSc2nc3ccccc3s2)c1O` [AG-825], the “Total Nuclei” value in experiment [2] (setting [4]) came out at 1.05.

`O=c1c(-c2ccc(O)cc2)coc2cc(O)ccc12` [Daidzein]: the “Total Nuclei” value in experiment [2] (setting [4]) was 1.03. Consider `O=S(=O)(c1cccc2cnccc12)N1CCCNCC1` [HA-1077], for which, in experiment [1] (setting [3]), the “Total Nuclei Ratio” value is listed as 1.07. For the same compound, the “Total Nuclei” value in experiment [2] (setting [4]) was found to be 1.02. With `N#CC(=C(/N)Sc1ccccc1N)/C(C#N)=C(\N)Sc1ccccc1N` [U-0126], the “Total Nuclei” value in experiment [2] was 0.87. Regarding `O=C(O)c1cc(N(Cc2ccccc2O)Cc2cc(O)ccc2O)ccc1O` [Lavendustin A], the “Total Nuclei” value in experiment [2] (setting [4]) turned out to be 1.02. As to `N#CC(C#N)=Cc1ccc([N+](=O)[O-])c(O)c1` [AG-126], the “Total Nuclei” value in experiment [2] (setting [4]) is listed as 0.99.

Take `Cn1cnc2c(NCc3ccccc3)nc(NCCO)nc21` [Olomoucine]: the “Total Nuclei” value in experiment [2] (setting [4]) is reported as 1.04. Turning to `CCCCCCCCCCCCCCCC(=O)OC(CC(=O)O)C[N+](C)(C)C.[Cl-]` (racemic) [Palmitoyl-DL-carnitine Cl], in experiment [2] (setting [4]), the “Total Nuclei” value came to 1.05. As to `COc1cc2ncc(-c3ccccc3)nc2cc1OC` [AG-1296], the “Total Nuclei” value in experiment [2] (setting [4]) came out at 1.09.

With `O=C1Nc2ccccc2/C1=C1/Nc2ccccc2C1=O` [Indirubin], in experiment [2] (setting [4]), the “Total Nuclei” value worked out at 1.01. On the same count and under the same terms, next, `CC(C)(C)c1cc(C=C(C#N)C#N)cc(C(C)(C)C)c1O` [Tyrphostin 9]: 0.28; `OC[C@H]1O[C@@H](n2cnc3cc(Cl)c(Cl)cc32)[C@H](O)[C@@H]1O` [DRB, 5,6-Dichloro-1-b-D-ribofuranosylbenzimidazole]: 1.01. The same measure, in the same setting: then `O.O.O=c1c(O)c(-c2ccc(O)c(O)c2)oc2cc(O)cc(O)c12` [Quercetin dihydrate], with 0.97. For the compound `O=C1Nc2ccc(I)cc2/C1=C/c1cc(Br)c(O)c(Br)c1` [GW 5074], in experiment [1] (setting [3]), the “Total Nuclei Ratio” value worked out at 1.11. Moreover, the “Total Nuclei” value in experiment [2] (setting [4]) turned out to be 1.06. Consider `N#CC(=Cc1ccc2[nH]ccc2c1)C(N)=C(C#N)C#N` [AG-370], for which the “Total Nuclei” value in experiment [2] (setting [4]) worked out at 1.01. Still for that read-out and setting: then `Cc1ccc(S(=O)(=O)/C=C/C#N)cc1` [BAY 11-7082], with 0.93; and `N#CC(C#N)=C(N)/C(C#N)=C/c1cc(O)c(O)c(O)c1` [Tyrphostin 51], with 1.04. With `O=c1cc(N2CCOCC2)oc2c(-c3ccccc3)cccc12` [LY 294002], the “Total Nuclei Ratio” value in experiment [1] (setting [3]) was 1.03. The “Total Nuclei” value in experiment [2] (setting [4]) stood at 1.08.

Regarding `N#C/C(=C/c1ccc(O)c(O)c1)C(=O)NCc1ccccc1` [AG-490], the “Total Nuclei Ratio” value in experiment [1] (setting [3]) came out at 0.99. Moreover, the “Total Nuclei” value in experiment [2] (setting [4]) is given as 1.04. For `Oc1ccc(-c2nc(-c3ccc(F)cc3)c(-c3ccncc3)[nH]2)cc1` [SB-202190], in that order: 1.08 and 1.08. On to `O=c1cc(-c2ccc(O)cc2)oc2cc(O)cc(O)c12` [Apigenin], for which the “Total Nuclei” value in experiment [2] (setting [4]) came to 1.05.

On to `CCCCCCCCCCCCC/C=C/[C@@H](O)[C@@H](N)CO` [Sphingosine], for which the “Total Nuclei” value in experiment [2] (setting [4]) was determined as 1.04.

In the case of `N#C/C(=C\c1ccc(O)c(O)c1)C(=O)Nc1ccccc1` [AG-494], the “Total Nuclei” value in experiment [2] (setting [4]) came to 1.10.

For `CN(C)c1ccc(C=C2C(=O)Nc3ccccc32)cc1` [SU 4312], the “Total Nuclei” value in experiment [2] (setting [4]) is given as 1.07. `Oc1c2ccccc2c2c3c(cccc13)N=N2` [SP 600125]: in experiment [2] (setting [4]), the “Total Nuclei” value amounted to 1.04. The same measure, in the same setting: then `N#C/C(=C\c1ccc(O)c(O)c1)C(N)=O` [Tyrphostin 46], with 1.05; and `CO[C@@H]1[C@H](N(C)C(=O)c2ccccc2)C[C@H]2O[C@]1(C)n1c3ccccc3c3c4c(c5c6ccccc6n2c5c31)C(=O)NC4` [PKC-412], with 0.17.

In the case of `C[S+]([O-])c1ccc(-c2nc(-c3ccc(F)cc3)c(-c3ccncc3)[nH]2)cc1` (stereo not drawn) [SB-203580], the “Total Nuclei Ratio” value in experiment [1] (setting [3]) is 1.05. In experiment [2] (setting [4]), the “Total Nuclei” value turned out to be 1.07. With `CN(C)CCCn1cc(C2=C(c3c[nH]c4ccccc34)C(=O)NC2=O)c2ccccc21` [GF 109203X], the “Total Nuclei Ratio” value in experiment [1] (setting [3]) was determined as 0.82. The “Total Nuclei” value in experiment [2] (setting [4]) came out at 1.05.

As to `NCCNS(=O)(=O)c1cccc2cnccc12` [H-9], the “Total Nuclei Ratio” value in experiment [1] (setting [3]) is given as 1.13. Moreover, the “Total Nuclei” value in experiment [2] (setting [4]) is listed as 1.00. In the case of `O=S(=O)(c1cccc2c(I)cccc12)N1CCCNCC1` [ML-7], the “Total Nuclei” value in experiment [2] (setting [4]) worked out at 0.98.

Regarding `CNCCNS(=O)(=O)c1cccc2cnccc12` [H-8], the “Total Nuclei” value in experiment [2] (setting [4]) worked out at 0.99. `Cl.O=S(=O)(c1cccc2c(Cl)cccc12)N1CCCNCC1` [ML-9]: the “Total Nuclei” value in experiment [2] (setting [4]) amounted to 1.06.
